Reference: US20040242456A1, “Herbicidal n-alkysulfonamino derivatives” (priority 2001, published 2004)

Experiments:
ABUTIL [1] = experiment: Post-emergence herbicidal action; type: in vivo, Abutilon; parameters: key: 1=total damage; 9=no action; details: 250 g of active ingredient per ha, sprayed at 4- to 6-leaf stage, evaluated after about 18 days; scale of nine ratings, 1 to 4 good to very good action
Procedure: (§1) Monocotyledonous and dicotyledonous test plants are grown in standard soil in plastic pots in a greenhouse and, at the 4- to 6-leaf stage, are sprayed with an aqueous suspension of the test compounds of formula I, prepared from a 25% wettable powder (Example F3, b) according to WO 97/34485 or with an emulsion of the test compounds of formula I, prepared from a 25% emulsifiable concentrate (Example F1, c) according to WO 97/34485, in an amount corresponding to 250 g of active ingredient per ha (500 litres of water per ha). The test plants are then grown on in the greenhouse under optimum conditions. After a test duration of about 18 days, the test is evaluated in accordance with a scale of nine ratings (1=total damage, 9=no action). Ratings of from 1 to 4 (especially from 1 to 3) indicate good to very good herbicidal action.

SETARI [2] = experiment: Post-emergence herbicidal action; type: in vivo, Setaria; details: 250 g of active ingredient per ha, sprayed at 4- to 6-leaf stage, evaluated after about 18 days; scale of nine ratings, 1 to 4 good to very good action
Procedure: as §1

STELLA = experiment: Pre-emergence herbicidal action; type: in vivo, Stellaria; parameters: key: 1=total damage; 9=no action; details: 250 g of active ingredient per ha, sprayed immediately after sowing, evaluated after 3 weeks; scale of nine ratings, 1 to 4 good to very good action
Procedure: (§2) Monocotyledonous and dicotyledonous test plants are sown in standard soil in plastic pots. Immediately after sowing, the test compounds, in the form of an aqueous suspension (prepared from a 25% wettable powder (Example F3, b) according to WO 97/34485) or in the form of an emulsion (prepared from a 25% emulsifiable concentrate (Example F1, c)), are applied by spraying, in an amount corresponding to 250 g of active ingredient per ha (500 litres of water per ha). The test plants are then grown in a greenhouse under optimum conditions. After a test duration of 3 weeks, the test is evaluated in accordance with a scale of nine ratings (1=total damage, 9=no action). Ratings of from 1 to 4 (especially from 1 to 3) indicate good to very good herbicidal action.

SETARI [3] = experiment: Pre-emergence herbicidal action; type: in vivo, Setaria; parameters: key: 1=total damage; 9=no action; details: 250 g of active ingredient per ha, sprayed immediately after sowing, evaluated after 3 weeks; scale of nine ratings, 1 to 4 good to very good action
Procedure: as §2

PANICU [4] = experiment: Pre-emergence herbicidal action; type: in vivo; parameters: key: 1=total damage; 9=no action; details: 250 g of active ingredient per ha, sprayed immediately after sowing, evaluated after 3 weeks; scale of nine ratings, 1 to 4 good to very good action
Procedure: as §2

CHENOP [5] = experiment: Post-emergence herbicidal action; type: in vivo, Chenopodium; parameters: key: 1=total damage; 9=no action; details: 250 g of active ingredient per ha, sprayed at 4- to 6-leaf stage, evaluated after about 18 days; scale of nine ratings, 1 to 4 good to very good action
Procedure: as §1

AMARAN [6] = experiment: Pre-emergence herbicidal action; type: in vivo, Amaranthus; parameters: key: 1=total damage; 9=no action; details: 250 g of active ingredient per ha, sprayed immediately after sowing, evaluated after 3 weeks; scale of nine ratings, 1 to 4 good to very good action
Procedure: as §2

CHENOP [7] = experiment: Pre-emergence herbicidal action; type: in vivo, Chenopodium; parameters: key: 1=total damage; 9=no action; details: 250 g of active ingredient per ha, sprayed immediately after sowing, evaluated after 3 weeks; scale of nine ratings, 1 to 4 good to very good action
Procedure: as §2

ECHINO [8] = experiment: Pre-emergence herbicidal action; type: in vivo, Echinochloa; parameters: key: 1=total damage; 9=no action; details: 250 g of active ingredient per ha, sprayed immediately after sowing, evaluated after 3 weeks; scale of nine ratings, 1 to 4 good to very good action
Procedure: as §2

DIGITA [9] = experiment: Pre-emergence herbicidal action; type: in vivo, Digitaria; parameters: key: 1=total damage; 9=no action; details: 250 g of active ingredient per ha, sprayed immediately after sowing, evaluated after 3 weeks; scale of nine ratings, 1 to 4 good to very good action
Procedure: as §2

ABUTIL [10] = experiment: Pre-emergence herbicidal action; type: in vivo, Abutilon; parameters: key: 1=total damage; 9=no action; details: 250 g of active ingredient per ha, sprayed immediately after sowing, evaluated after 3 weeks; scale of nine ratings, 1 to 4 good to very good action
Procedure: as §2

AMARAN [11] = experiment: Post-emergence herbicidal action; type: in vivo, Amaranthus; parameters: key: 1=total damage; 9=no action; details: 250 g of active ingredient per ha, sprayed at 4- to 6-leaf stage, evaluated after about 18 days; scale of nine ratings, 1 to 4 good to very good action
Procedure: as §1

PANICU [12] = experiment: Post-emergence herbicidal action; type: in vivo; parameters: key: 1=total damage; 9=no action; details: 250 g of active ingredient per ha, sprayed at 4- to 6-leaf stage, evaluated after about 18 days; scale of nine ratings, 1 to 4 good to very good action
Procedure: as §1

DIGITA [13] = experiment: Post-emergence herbicidal action; type: in vivo, Digitaria; parameters: key: 1=total damage; 9=no action; details: 250 g of active ingredient per ha, sprayed at 4- to 6-leaf stage, evaluated after about 18 days; scale of nine ratings, 1 to 4 good to very good action
Procedure: as §1

EUPHOR = experiment: Post-emergence herbicidal action; type: in vivo; details: 250 g of active ingredient per ha, sprayed at 4- to 6-leaf stage, evaluated after about 18 days; scale of nine ratings, 1 to 4 good to very good action
Procedure: as §1

ECHINO [14] = experiment: Post-emergence herbicidal action; type: in vivo, Echinochloa; details: 250 g of active ingredient per ha, sprayed at 4- to 6-leaf stage, evaluated after about 18 days; scale of nine ratings, 1 to 4 good to very good action
Procedure: as §1

Structure (SMILES) | Post-emergence action ABUTIL, rating (ABUTIL [1]) | Post-emergence action SETARI, rating (SETARI [2]) | Pre-emergence action STELLA, rating (STELLA) | Pre-emergence action SETARI, rating (SETARI [3]) | Pre-emergence action PANICU, rating (PANICU [4]) | Post-emergence action CHENOP, rating (CHENOP [5]) | Pre-emergence action AMARAN, rating (AMARAN [6]) | Pre-emergence action CHENOP, rating (CHENOP [7]) | Pre-emergence action ECHINO, rating (ECHINO [8]) | Pre-emergence action DIGITA, rating (DIGITA [9]) | Pre-emergence action ABUTIL, rating (ABUTIL [10]) | Post-emergence action AMARAN, rating (AMARAN [11]) | Post-emergence action PANICU, rating (PANICU [12]) | Post-emergence action DIGITA, rating (DIGITA [13]) | Post-emergence action EUPHOR, rating (EUPHOR) | Post-emergence action ECHINO, rating (ECHINO [14])
COCCN(C1=C(C(=O)c2ccc(C(F)(F)F)nc2C)C(=O)C(C)(C)C(=O)C1(C)C)S(C)(=O)=O [Example 1.001] | 1 | 2 | 4 | 2 | 1 | 1 | 1 | 1 | 1 | 1 | 1 | 2 | 1 | 1 | 2 | 2
CCS(=O)(=O)N(CCOC)C1=C(C(=O)c2ccc(C(F)(F)F)nc2C)C(=O)C(C)(C)C(=O)C1(C)C [Example 1.007] | 1 | 2 | 1 | 1 | 1 | 1 | 1 | 1 | 1 | 1 | 1 | 2 | 1 | 1 | 2 | 2
COCCN(C1=C(C(=O)c2ccc(C(F)(F)F)nc2C)C(=O)C2CCC1C2)S(C)(=O)=O (stereo not shown) [Example 1.012] | 2 | 2 | 4 | 1 | 1 | 1 | 1 | – | 1 | 1 | 1 | 2 | 2 | 2 | 2 | 2
CCS(=O)(=O)N(CCOC)C1=C(C(=O)c2ccc(C(F)(F)F)nc2C)C(=O)C2CCC1C2 (stereo not shown) [Example 1.013, Ethanesulfonic acid(2-methoxy-ethyl)-[3-(2-methyl-6-trifluoromethyl-pyridine-3-carbonyl)-4-oxo-bicyclo[3.2.1]oct-2-en-2-yl]-amide] | 2 | 2 | 1 | 1 | 1 | 1 | 1 | 1 | 1 | 1 | 1 | 1 | 1 | 2 | 2 | 2
COCCN(C1=C(C(=O)c2ccc(C(F)(F)F)nc2C)C(=O)C2CCC1C2)S(=O)(=O)c1ccccc1 (stereo not shown) [Example 1.027] | – | – | 9 | 2 | 2 | – | 2 | 9 | 3 | 2 | 3 | – | – | – | – | –
CCS(=O)(=O)N(Cc1ccccc1)C1=C(C(=O)c2ccc(C(F)(F)F)nc2C)C(=O)C2CCC1C2 (stereo not shown) [Example 1.065] | 2 | 5 | 1 | 1 | 1 | 1 | 2 | 2 | 1 | 1 | 1 | 2 | 2 | 2 | 3 | 3
Cc1nc(C(F)(F)F)ccc1C(=O)C1=C(N(Cc2ccccc2)S(=O)(=O)C(C)C)C2CCC(C2)C1=O (stereo not shown) [Example 1.067] | – | – | 1 | 1 | 1 | – | 2 | 1 | 2 | 1 | 2 | – | – | – | – | –
Cc1nc(C(F)(F)F)ccc1C(=O)C1=C(N(Cc2ccccc2)S(=O)(=O)c2ccccc2)C2CCC(C2)C1=O (stereo not shown) [Example 1.079] | – | – | 2 | 6 | 1 | – | 3 | 2 | 2 | 3 | 4 | – | – | – | – | –
